Laboratory results: ChEMBL document CHEMBL3046957, “Synthesis of new oxadiazole derivatives as anti-inflammatory, analgesic, and antimicrobial agents” (2013)

Tests used:
Assay type in all cases: functional
[1] = tested on: Rattus norvegicus; test: Anti-inflammatory activity in Wistar albino Rattus norvegicus (rat) assessed as inhibition of carrageenan-induced paw edema at 10 mg/kg, po administered 30 min prior to carrageenan challenge measured after 3 hr by plethysmometric analysis relative to untreated control
[2] = tested on: Rattus norvegicus; test: Anti-inflammatory activity in Wistar albino Rattus norvegicus (rat) assessed as inhibition of carrageenan-induced paw edema at 10 mg/kg, po administered 30 min prior to carrageenan challenge measured after 2 hr by plethysmometric analysis relative to untreated control
[3] = tested on: Rattus norvegicus; test: Anti-inflammatory activity in Wistar albino Rattus norvegicus (rat) assessed as inhibition of carrageenan-induced paw edema at 10 mg/kg, po administered 30 min prior to carrageenan challenge measured after 1.5 hr by plethysmometric analysis relative to untreated control
[4] = tested on: Rattus norvegicus; test: Anti-inflammatory activity in Wistar albino Rattus norvegicus (rat) assessed as inhibition of carrageenan-induced paw edema at 10 mg/kg, po administered 30 min prior to carrageenan challenge measured after 1 hr by plethysmometric analysis relative to untreated control
[5] = tested on: Rattus norvegicus; test: Anti-inflammatory activity in Wistar albino Rattus norvegicus (rat) assessed as inhibition of carrageenan-induced paw edema at 10 mg/kg, po administered 30 min prior to carrageenan challenge measured after 0.5 hr by plethysmometric analysis relative to untreated control
[6] = tested on: Aspergillus niger; test: Antifungal activity against Aspergillus niger assessed as growth inhibition at 100 ug/mL after 24 hr by cup-plate method; settings: read-out: DIZ
[7] = tested on: Aspergillus niger; test: Antifungal activity against Aspergillus niger assessed as growth inhibition at 50 ug/mL after 24 hr by cup-plate method; settings: read-out: DIZ
[8] = tested on: Candida albicans; test: Antifungal activity against Candida albicans assessed as growth inhibition at 100 ug/mL after 24 hr by cup-plate method; settings: read-out: DIZ
[9] = tested on: Candida albicans; test: Antifungal activity against Candida albicans assessed as growth inhibition at 50 ug/mL after 24 hr by cup-plate method; settings: read-out: DIZ
[10] = tested on: Pseudomonas aeruginosa; test: Antibacterial activity against Pseudomonas aeruginosa assessed as growth inhibition at 100 ug/mL after 24 to 48 hr by cup-plate method; settings: read-out: DIZ
[11] = tested on: Pseudomonas aeruginosa; test: Antibacterial activity against Pseudomonas aeruginosa assessed as growth inhibition at 50 ug/mL after 24 to 48 hr by cup-plate method; settings: read-out: DIZ
[12] = tested on: Escherichia coli; test: Antibacterial activity against Escherichia coli assessed as growth inhibition at 100 ug/mL after 24 to 48 hr by cup-plate method; settings: read-out: DIZ
[13] = tested on: Bacillus subtilis; test: Antibacterial activity against Bacillus subtilis assessed as growth inhibition at 100 ug/mL after 24 to 48 hr by cup-plate method; settings: read-out: DIZ
[14] = tested on: Escherichia coli; test: Antibacterial activity against Escherichia coli assessed as growth inhibition at 50 ug/mL after 24 to 48 hr by cup-plate method; settings: read-out: DIZ
[15] = tested on: Bacillus subtilis; test: Antibacterial activity against Bacillus subtilis assessed as growth inhibition at 50 ug/mL after 24 to 48 hr by cup-plate method; settings: read-out: DIZ
[16] = tested on: Staphylococcus aureus; test: Antibacterial activity against Staphylococcus aureus assessed as growth inhibition at 100 ug/mL after 24 to 48 hr by cup-plate method; settings: read-out: DIZ
[17] = tested on: Staphylococcus aureus; test: Antibacterial activity against Staphylococcus aureus assessed as growth inhibition at 50 ug/mL after 24 to 48 hr by cup-plate method; settings: read-out: DIZ
[18] = tested on: Mus musculus; test: Analgesic activity in Swiss albino Mus musculus (mouse) assessed as latency time of heat-induced paw licking/jumping behaviour at 10 mg/kg after 4 hr by Eddy's hot plate method (reference value: 4.57 +/- 0.11 secs)
[19] = tested on: Mus musculus; test: Analgesic activity in Swiss albino Mus musculus (mouse) assessed as latency time of heat-induced paw licking/jumping behaviour at 10 mg/kg after 2 hr by Eddy's hot plate method (reference value: 4.86 +/- 0.18 secs)
[20] = tested on: Mus musculus; test: Analgesic activity in Swiss albino Mus musculus (mouse) assessed as latency time of heat-induced paw licking/jumping behaviour at 10 mg/kg after 1 hr by Eddy's hot plate method (reference value: 4.74 +/- 0.21 secs)
[21] = tested on: Mus musculus; test: Analgesic activity in Swiss albino Mus musculus (mouse) assessed as latency time of heat-induced paw licking/jumping behaviour at 10 mg/kg after 0.5 hr by Eddy's hot plate method (reference value: 4.17 +/- 0.04 secs)

| SMILES | inhibition in vivo at 10 mg/kg [1] | inhibition in vivo at 10 mg/kg [2] | inhibition in vivo at 10 mg/kg [3] | inhibition in vivo at 10 mg/kg [4] | inhibition in vivo at 10 mg/kg [5] | zone of inhibition at 100 µg/mL [6] | zone of inhibition at 50 µg/mL [7] | zone of inhibition at 100 µg/mL [8] | zone of inhibition at 50 µg/mL [9] | zone of inhibition at 100 µg/mL [10] | zone of inhibition at 50 µg/mL [11] | zone of inhibition at 100 µg/mL [12] | zone of inhibition at 100 µg/mL [13] | zone of inhibition at 50 µg/mL [14] | zone of inhibition at 50 µg/mL [15] | zone of inhibition at 100 µg/mL [16] | Time [18] | Time [19] | Time [20] | Time [21] | other results |
| --- | --- | --- | --- | --- | --- | --- | --- | --- | --- | --- | --- | --- | --- | --- | --- | --- | --- | --- | --- | --- | --- |
| O=C(O)Cc1ccccc1Nc1c(Cl)cccc1Cl [DICLOFENAC SODIUM] | 90% | 77% | 65% | 49% | 35% | – | – | – | – | – | – | – | – | – | – | – | – | – | – | – | – |
| COc1ccc(F)cc1-c1cccc(-c2nn(CCCC#N)c(=O)o2)c1 | 85% | 71% | 59% | 44% | 29% | 14 mm | 12 mm | 16 mm | 10 mm | 14 mm | 11 mm | 16 mm | 14 mm | 11 mm | 13 mm | 14 mm | 7.08 s | 7.11 s | 5.64 s | 5.71 s | zone of inhibition at 50 µg/mL [17]: 10 mm |
| COC1=CC(=O)C[C@@H](C)[C@]12Oc1c(Cl)c(OC)cc(OC)c1C2=O [GRISEOFULVIN] | – | – | – | – | – | 37 mm | 22 mm | 35 mm | 20 mm | – | – | – | – | – | – | – | – | – | – | – | – |
| CC(C)=CCN1CCC2(C)c3cc(O)ccc3CC1C2C (stereo not drawn) [PENTAZOCINE] | – | – | – | – | – | – | – | – | – | – | – | – | – | – | – | – | 7.85 s | 8.06 s | 5.93 s | 5.58 s | – |
| COc1ccc(F)cc1-c1cccc(-c2nn(CCO)c(=O)o2)c1 | 75% | 69% | 53% | 41% | 28% | 10 mm | 9 mm | 8 mm | 4 mm | 20 mm | 18 mm | 19 mm | 18 mm | 18 mm | 13 mm | 16 mm | 5.59 s | 6.88 s | 4.36 s | 4.96 s | zone of inhibition at 50 µg/mL [17]: 14 mm |
| COc1ccc(F)cc1-c1cccc(-c2nn(CCCCF)c(=O)o2)c1 | 95% | 83% | 67% | 51% | 36% | 10 mm | 9 mm | 11 mm | 8 mm | 21 mm | 18 mm | 20 mm | 24 mm | 17 mm | 20 mm | 25 mm | 7.04 s | 7.88 s | 5.24 s | 5.55 s | zone of inhibition at 50 µg/mL [17]: 19 mm |
| COc1ccc(F)cc1-c1cccc(-c2nn(CCCN)c(=O)o2)c1 | 77% | 66% | 55% | 43% | 29% | 12 mm | 10 mm | 12 mm | 5 mm | 21 mm | 17 mm | 16 mm | 19 mm | 15 mm | 12 mm | 17 mm | 5.49 s | 6.84 s | 4.62 s | 4.93 s | zone of inhibition at 50 µg/mL [17]: 12 mm |
| COc1ccc(F)cc1-c1cccc(-c2nn(CCOS(=O)(=O)c3ccc(Cl)c(Cl)c3)c(=O)o2)c1 | 66% | 64% | 51% | 39% | 25% | 10 mm | 7 mm | 9 mm | 3 mm | 15 mm | 12 mm | 19 mm | 17 mm | 12 mm | 10 mm | 15 mm | 5.55 s | 5.72 s | 4.48 s | 4.95 s | zone of inhibition at 50 µg/mL [17]: 12 mm |
| COc1ccc(F)cc1-c1cccc(-c2nn(CCOS(=O)(=O)c3ccc(F)cc3)c(=O)o2)c1 | 67% | 63% | 50% | 40% | 24% | 9 mm | 5 mm | 6 mm | 5 mm | 15 mm | 10 mm | 16 mm | 20 mm | 12 mm | 15 mm | 21 mm | 6.01 s | 6.17 s | 5.01 s | 4.91 s | zone of inhibition at 50 µg/mL [17]: 15 mm |
| CN[C@@H]1[C@H](O[C@H]2[C@H](O[C@H]3[C@H](O)[C@@H](O)[C@H](N=C(N)N)[C@@H](O)[C@@H]3N=C(N)N)O[C@@H](C)[C@]2(O)C=O)O[C@@H](CO)[C@H](O)[C@H]1O [STREPTOMYCIN] | – | – | – | – | – | – | – | – | – | 25 mm | 21 mm | 25 mm | – | 21 mm | – | – | – | – | – | – | – |
